Experimental data published in PubChem BioAssay (NCI).
Several values for one entry are separate records, joined by “and”; a condition that tells them apart may be missing. Equal values may be shown once.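 These data come from cells grown in 96-well plates and exposed to compound for 48 hours at five concentrations. Abbreviation: GI50, concentration required for 50% inhibition of growth. At the TGI there is no net growth.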

Assays:
Assay in all cases: inhibition of tumour cell growth, NCI panel, 48 h
[1] = tested on: SR leukemia
[2] = tested on: NCI-H460 lung
[3] = tested on: SNB-75 CNS
[4] = tested on: HL-60(TB) leukemia
[5] = tested on: NCI-H522 lung
[6] = tested on: SF-539 CNS
[7] = tested on: DLD-1 colon
[8] = tested on: KM20L2 colon
[9] = tested on: SNB-78 CNS
[10] = tested on: A549 NSCLC
[11] = tested on: DMS 273 small cell lung
[12] = tested on: MCF7 breast

| Structure (SMILES) | TGI [1] | TGI [2] | TGI [3] | TGI [4] | TGI [5] | TGI [6] | TGI [7] | TGI [8] | TGI [9] | TGI [10] | TGI [11] | TGI [12] | GI50 [5] |
| --- | --- | --- | --- | --- | --- | --- | --- | --- | --- | --- | --- | --- | --- |
| CCOc1ccc(NCC2CC/C(=C\c3ccc(Cl)cc3)C2=O)cc1 (centres undefined) | > 50.4 µM | > 100 µM | > 76.5 µM | 37.3 µM | 13.9 µM | > 57 µM | 26.6 µM | > 55.8 µM | > 100 µM | > 100 µM | > 54.1 µM | – | – |
| O=C1c2cccc3c(Cl)ccc(c23)C(=O)N1CCCN1CCN(CCCN2C(=O)c3cccc4c(Cl)ccc(c34)C2=O)CC1 | – | > 100 µM | > 100 µM | > 100 µM | – | > 100 µM | > 100 µM | > 100 µM | > 100 µM | > 100 µM | > 100 µM | – | – |
| CCC(C)c1cccc(C)c1NC(=O)C(=O)Cc1nc2ccccc2s1 (centres undefined) | – | > 100 µM | > 100 µM | > 100 µM | > 100 µM | > 100 µM | > 100 µM | > 100 µM | > 100 µM | > 100 µM | > 100 µM | – | – |
| O=C1CCNC(=O)NC1 | > 100 µM | > 100 µM | > 100 µM | > 100 µM | > 100 µM | – | > 100 µM | > 100 µM | > 100 µM | > 100 µM | > 100 µM | – | – |
| COC1C(CO)OC(n2c3c(Cl)cccc3c3c4c(c5c6cccc(Cl)c6[nH]c5c32)C(=O)NC4=O)C(O)C1O (centres undefined) | – | 0.479 µM | 5.87 µM | – | 10.5 µM | 0.489 µM | > 100 µM | > 100 µM | > 100 µM | 8.2 µM | 1.3 µM | 4.86 µM | – |
| CNc1ccc([N+](=O)[O-])c2c(NCCCN(C)C)ccnc12 | > 100 µM | > 100 µM | – | > 100 µM | > 100 µM | > 100 µM | – | > 100 µM | > 100 µM | > 100 µM | > 100 µM | – | – |
| CN(C(=O)C12C3C4C1C1C2C3C41C(O)C(C)(C)C)C(C)(C)C (centres undefined) | – | > 100 µM | > 100 µM | > 100 µM | > 100 µM | > 100 µM | > 100 µM | > 100 µM | > 100 µM | > 100 µM | > 100 µM | – | – |
| CC(O)C(NC(=O)c1ccccc1)C(=O)N(Cc1ccccc1)Cc1ccccc1 (centres undefined) | – | > 100 µM | > 100 µM | > 100 µM | 26.5 µM | > 100 µM | > 100 µM | > 100 µM | > 100 µM | > 100 µM | > 100 µM | – | – |
| O=C1/C(=C/c2ccc(Cl)cc2)CCC1CN1CCOCC1 (centres undefined) | 5.29 µM | 39.2 µM | 37.9 µM | 3.8 µM | 5.15 µM | 34.6 µM | 11.3 µM | 29.1 µM | 48.9 µM | 55.9 µM | 11.9 µM | 21 µM | – |
| Cc1cccc(C(C)C)c1NC(=O)CCl | > 100 µM | > 100 µM | > 100 µM | > 100 µM | 30 µM | > 100 µM | > 100 µM | > 100 µM | > 100 µM | > 100 µM | > 100 µM | – | – |
| C=C1CCC2C(C)(CO)C(O)CCC2(C)C1C/C=C1/CCOC1=O (centres undefined) | > 100 µM | > 100 µM | > 100 µM | > 100 µM | > 100 µM | > 100 µM | > 100 µM | > 100 µM | – | > 100 µM | > 100 µM | – | – |
| O=S1c2ccccc2NC(c2ccc3ccccc3c2)CC1c1ccccc1 (centres undefined) | – | 47.1 µM | 86.6 µM | 55.3 µM | 42.4 µM | 41.1 µM | 70.1 µM | 48.9 µM | – | > 100 µM | 91.6 µM | – | – |
| CN(C)CCNC(=O)c1c2ccccc2cc2ccccc12 | 26.3 µM | > 100 µM | > 100 µM | 88.5 µM | – | > 100 µM | > 100 µM | > 100 µM | > 100 µM | > 100 µM | > 100 µM | – | – |
| COc1ccc(N=Nc2c(-c3ccccc3)nn(C(=O)CC(=O)Nc3ccccc3Cl)c2-c2ccccc2)cc1 | 11.3 µM | > 100 µM | > 100 µM | > 100 µM | > 100 µM | > 100 µM | > 100 µM | > 100 µM | > 100 µM | > 100 µM | > 100 µM | – | – |
| CN1C(=O)CCC1c1ccc2c(c1)oc(=O)n2C (centres undefined) | – | > 100 µM | > 100 µM | > 100 µM | > 100 µM | > 100 µM | > 100 µM | > 100 µM | > 100 µM | > 100 µM | > 100 µM | – | – |
| O=c1ccn(C2(CO)C=C(CO)C(O)C2O)c(=O)[nH]1 (centres undefined) | > 25.7 µM | > 25.7 µM | > 25.7 µM | > 25.7 µM | > 25.7 µM | > 25.7 µM | > 25.7 µM | > 25.7 µM | > 25.7 µM | > 25.7 µM | > 25.7 µM | – | – |
| Cc1ccc(/C=C/C(=O)c2ccc([N+](=O)[O-])cc2)cc1 | > 100 µM | > 100 µM | > 100 µM | > 100 µM | > 100 µM | > 100 µM | > 100 µM | > 100 µM | > 100 µM | > 100 µM | > 100 µM | – | – |
| ClC1c2ccccc2C2(c3ccccc3)OOC1(c1ccccc1)O2 (centres undefined) | 3.4 µM | 3.13 µM | 3.27 µM | 0.309 µM | 0.8 µM | 5.01 µM | – | 3.26 µM | 3.19 µM | 3.64 µM | 3.17 µM | – | – |
| CC(C)CN1CC(C)C(=O)NC1=O (centres undefined) | > 100 µM | > 100 µM | – | > 100 µM | > 100 µM | > 100 µM | > 100 µM | > 100 µM | > 100 µM | > 100 µM | > 100 µM | – | – |
| CN(C)C(=S)/N=c1\ss/c(=N\C(=S)N(C)C)n1Cc1ccco1 | > 100 µM | > 100 µM | > 100 µM | > 100 µM | > 100 µM | > 100 µM | > 100 µM | > 100 µM | > 100 µM | > 100 µM | > 100 µM | – | – |
| COc1ccc(OC(C)C(=O)O)c2c1CCCC2=O (centres undefined) | > 100 µM | > 100 µM | > 100 µM | > 100 µM | > 100 µM | > 100 µM | > 100 µM | > 100 µM | > 100 µM | > 100 µM | > 100 µM | – | – |
| CC#CC#C/C=C1\C=CC2(OC=CC2OC(C)=O)O1 (centres undefined) | 89.6 µM and > 94.5 µM | 65 µM and > 100 µM | > 100 µM and 95.9 µM | 36.5 µM and > 86.7 µM | 39.2 µM and 11.1 µM | 76.9 µM and 48.8 µM | 34.3 µM | 10.2 µM | 18.7 µM | > 100 µM | 49.1 µM | 30.8 µM | 14.7 µM and 5.72 µM |
